Assays:
[1] = molecular target: T1, SARM1 TIR (Homo sapiens (Human), UniProt Q6SZW1); test: NADase assay with purified bacterial hSARM1-TIR, enzyme inhibition studies; assay type: biochemical; settings: 1 mM in the reaction mixture, 5 min
Target sequence in this assay (Q6SZW1 other isoform, or with tags, fused parts or gaps): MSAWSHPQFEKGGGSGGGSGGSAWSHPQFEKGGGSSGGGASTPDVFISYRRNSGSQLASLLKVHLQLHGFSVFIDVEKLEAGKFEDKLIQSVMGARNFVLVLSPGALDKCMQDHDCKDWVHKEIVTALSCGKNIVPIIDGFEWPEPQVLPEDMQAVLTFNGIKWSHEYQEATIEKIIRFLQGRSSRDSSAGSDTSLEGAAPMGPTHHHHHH
Description: Ten microliters of beads incubated with the indicated cell lysate were incubated with 5 μM NAD in reaction buffer (92.4 mM NaCl and 0.64×PBS). Reactions were carried out at 25° C. for the indicated amount of time and stopped by addition of 1M of perchloric acid (HClO4) and placing the tube on ice. NAD+ metabolites were extracted using HClO4/K2CO3 method and quantified by HPLC (see HPLC for metabolite measurement).
Metabolites were isolated from enzyme reaction mixture by extracting with 1M HClO4, then neutralized with 3M K2CO3, and followed by separation by centrifugation. The supernatant (90 μL) containing the extracted metabolites was mixed with 0.5M Potassium Phosphate buffer (10 μL) and metabolites were analyzed by HPLC (Nexera X2) with Kinetex (100×3 mm, 2.6 μm; Phenomenex) column. […] The levels for each compound in each experimental sample were normalized to the 0 min time point that was analyzed concurrently.
The reaction was stopped after 5 min and NAD+ metabolites were extracted by the perchloric acid method and measured by HPLC as indicated above.

[2] = molecular target: T1, SARM1 TIR; test: SARM1 TIR-based assay (bacterially expressed, tagged SARM1 TIR fragment on beads); assay type: biochemical; settings: compound at 5 μM, 5 μM NAD+
From the text: The present Example describes a SARM1 TIR-based Assay. This assay is similar to the assay described in Example 1, but allows for the identification and/or characterization of compounds that directly interact with the TIR domain, whereas the assay described in Example 1 can also identify compounds that disrupt SAM domain interactions. This assay makes use of the bacterial expression of a tagged version of the SARM1 TIR fragment that can be affinity purified. Displaying this artificial SARM1 TIR domain on a solid surface (i.e. affinity beads) generates an active NAD+ cleavage enzyme.
The TIR domain of SARM1 was tagged with a tandem STREP-TAG® at the N-terminus, and a polyhistidine tag at the C-terminus, and was cloned into a pET30a+ plasmid. The construct was then transformed into SHuffle® T7 Express Competent E. coli (New England BioLabs, Ipswich, MA) and single colonies were grown overnight. The next day, cultures were diluted in LB media, grown at 30° C. until they reached A600=0.4-0.8, when IPTG (0.5 mM final concentration) was added. The bacteria were grown for an additional 4 h, pelleted by centrifugation, washed with PBS and stored at −80° C. For protein purification, the frozen bacterial pellet was thawed on ice, resuspended in binding buffer (without protease inhibitors) and incubated with 100 μg/mL lysozyme for 15 min on ice. Protease inhibitor cocktail was then added and the cells were lysed by sonication.
The SARM1 TIR protein was first purified by Strep Tag affinity methods where bacterial lysates were incubated with […] (STREP-TACTIN®, IBA GmBH, Gottingen Germany) type 3 XT beads suspension (IBA Lifesciences) for 30 min. The beads were then washed three times with binding buffer, and bound proteins were eluted from MagStrep type 3 XT beads with 22.5 mM biotin for 25 min. Supernatant containing the eluted protein was separated from MagStrep beads, and incubated with 10 μL Co2+ DYNABEAD® (ThermoFisher Scientific, Waltham, MA) suspension for 30 min to bind SARM1-TIR proteins via the His tag. The beads were then washed at least two times with binding buffer and resuspended in 100 μL of binding buffer for NADase assay.
Ten microliters of purified SARM1-TIR laden beads were incubated with 5 μM NAD+ in reaction buffer (92.4 mM NaCl and 0.64×PBS). Reactions were carried out at 25° C. for the indicated amount of time and stopped by addition of 1M of perchloric acid (HClO4) and placing the tube on ice. NAD+ metabolites were extracted using HClO4/K2CO3 method and quantified by HPLC (see metabolite measurement below). For LC-MS/MS analysis, the extraction was performed using 50% methanol in distilled water and chloroform (see LC-MS/MS metabolite measurement below). […] Select potent inhibitors (622608, 622689) identified from SARM1 SAM-TIR lysate screen were added to the reaction at 5 μM. NAD normalized to control at 0 min.
Metabolites were isolated from enzyme reaction mixture by extracting with 1M HClO4, then neutralized with 3M K2CO3, and followed by separation by centrifugation. The supernatant (90 μL) containing the extracted metabolites was mixed with 0.5M Potassium Phosphate buffer (10 μL) and metabolites were analyzed by HPLC (Nexera X2) with KINETEX® (100×3 mm, 2.6 μm; PHENOMENEX®) column and metabolites are monitored with absorbance at 254 nm. Internal standards for NAD+, Nicotinamide (Nam), ADP Ribose (ADPR) were used to generate standard curves for quantification of the respective compounds. The levels for each compound in each experimental sample was normalized to the 0 min time point that was analyzed concurrently.
These analogs were tested using an assay that makes use of a bacterially-expressed tagged version of the SARM1 TIR fragment, as described in Example 2. Displaying this artificial SARM1 TIR domain on a solid surface (i.e. affinity beads) generates an active NAD+ cleavage enzyme.

[3] = test system: DRG neurons; test: In vitro axon degeneration assay after axotomy (degeneration index); assay type: cell-based, mouse
Description: Mouse dorsal root ganglion (DRG) were dissected from embryonic days 13.5 CD1 mouse embryo (˜50 ganglion per embryo) and incubated with 0.05% Trypsin solution containing 0.02% EDTA (Gibco) at 37° C. for 15 min. Then cell suspensions are triturated by gentle pipetting and washed 3 times with DRG growth medium (Neurobasal medium (Gibco) containing 2% B27 (Invitrogen), 100 ng/ml 2.5S NGF (Harlan Bioproduts), 1 μM uridine (Sigma), 1 μM 5-fluoro-2′-deoxyuridine (Sigma), penicillin, and streptomycin). Cells were suspended in DRG growth medium at a ratio of 100 μl medium/50 DRGs. The cell density of these suspensions was ˜7×10^6 cells/ml. Cell suspension (10 μl) was placed in the center of the well using 24-well tissue culture plates (Corning) coated with poly-D-Lysine (0.1 mg/ml; Sigma) and laminin (3 μg/ml; Invitrogen). […]
Axonal degeneration was induced by axotomy or by the addition of vincristine (0.04 μM) using DRG drop cultures in 96 well at DIV 6. […] Axon degeneration was quantified using degeneration index (DI) calculated using ImageJ (NIH, Sasaki et al., 2009, J. Neurosci., […]: 5525-5535). […] The DI was calculated from axon images from the same fields before (0 hour) and after (9-72 hours) axotomy. […] Axon degeneration was monitored by imaging axons before injury, and various time points after axotomy.

[4] = molecular target: SARM1 SAM-TIR lysate (Homo sapiens (Human), UniProt Q6SZW1); test: Luminescence-based NAD+ Glo (NAD+ cycling) assay with SAM-TIR lysate; assay type: biochemical
From the text: Luminescence-based assay. This assay can complement the results obtained by HPLC, and can permit a higher throughput of compound library screening than is possible with HPLC methods. This assay is an adaptation of the NAD+/NADH-GLO™ assay (Promega G9071, Promega Corporation, Madison, WI). In this assay, NAD+ cycling enzymes convert NAD+ into NADH. In the presence of NADH, the reductase enzymatically converts a pro-luciferin reductase substrate into luciferin. Luciferin is detected using ULTRA-GLO™ rLuciferase, and the chemiluminescence intensity is proportional to the amount of NAD+ and NADH in the sample. Under the present assay conditions, the amount of NAD+ and NADH present in the lysate is undetectable with this assay, precluding any endogenous contribution to the final NAD+ detected. The assay was set up as follows: 2 μl candidate inhibitor (final concentration 1 μM, 2% DMSO), 0.07 μg lysate (2 μl), and 2 μl of 400 nM NAD+. The reaction was incubated at 37° C. for 60 min, then 6 μl NAD+/NADH-GLO™ detection reagent was added. After 30 min at room temperature, the luminescent signals were quantified using a CYTATION™ 5 imaging reader (BIOTEK®).

[5] = molecular target: T1, SARM1 TIR; test: In vitro NADase assay with SARM1-TIR complexes purified from NRK1-HEK293T cells, substrate specificity; assay type: biochemical
Description: Approximately 10 million cells were plated and transfected the next day with 15 μg of StrepTag SARM1-TIR construct DNA using X-tremeGENE™ 9 reagent (Sigma-Aldrich, St. Louis MO). […] After 2 days the cells were harvested and lysed by sonication in binding buffer (50 mM Sodium Phosphate buffer pH 8, 300 mM Sodium Chloride, 0.01% Tween-20, protease inhibitor tablets). For single step affinity purification, the whole cell lysates were incubated with 20 μL MagStrep (Strep-Tactin) type 3 XT beads suspension (IBA Lifesciences) for 30 min. The beads were then washed three times with binding buffer and resuspended in 100 μL of binding buffer for enzymatic assays and other downstream applications.
Ten microliters of beads incubated with the indicated cell lysate were incubated with 5 μM NAD in reaction buffer (92.4 mM NaCl and 0.64×PBS). […] NAD+ metabolites were extracted using HClO4/K2CO3 method and quantified by HPLC (see HPLC for metabolite measurement). […]
Metabolites were isolated from enzyme reaction mixture by extracting with 1M HClO4, then neutralized with 3M K2CO3, and followed by separation by centrifugation. The supernatant (90 μL) containing the extracted metabolites was mixed with 0.5M Potassium Phosphate buffer (10 μL) and metabolites were analyzed by HPLC (Nexera X2) with Kinetex (100×3 mm, 2.6 μm; Phenomenex) column. […]
Target sequence in this assay (Q6SZW1 561-724): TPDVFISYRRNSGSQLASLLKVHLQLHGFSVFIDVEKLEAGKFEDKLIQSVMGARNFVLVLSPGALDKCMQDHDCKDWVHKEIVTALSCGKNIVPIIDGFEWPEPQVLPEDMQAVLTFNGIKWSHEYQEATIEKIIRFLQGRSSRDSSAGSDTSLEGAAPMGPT

Sequence of SARM1 SAM-TIR lysate (Q6SZW1 other isoform, or with tags, fused parts or gaps): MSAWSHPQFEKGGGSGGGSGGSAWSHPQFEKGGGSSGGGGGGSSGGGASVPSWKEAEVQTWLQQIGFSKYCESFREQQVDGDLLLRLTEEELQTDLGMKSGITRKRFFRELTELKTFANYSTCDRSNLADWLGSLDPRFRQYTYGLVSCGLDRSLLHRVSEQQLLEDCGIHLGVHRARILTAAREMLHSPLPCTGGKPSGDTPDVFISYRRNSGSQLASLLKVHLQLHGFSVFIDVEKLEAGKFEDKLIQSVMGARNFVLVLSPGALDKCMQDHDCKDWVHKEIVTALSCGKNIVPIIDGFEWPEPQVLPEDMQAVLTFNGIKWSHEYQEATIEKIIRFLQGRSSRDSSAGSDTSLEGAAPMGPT

SMILES: Nc1ncnc2c1ncn2[C@@H]1O[C@H](COP(=O)(O)OP(=O)(O)OC[C@H]2OC(O)[C@H](O)[C@@H]2O)[C@@H](O)[C@H]1O (stereo partly drawn) [ADPR, ADP Ribose]
- inhibition of SARM1-TIR NADase activity [1]: did not inhibit

SMILES: Br.CN(C)c1nc(=NCc2ccco2)ss1 [NSC622608]
- inhibition of NADase activity of purified SARM1 TIR [2]: inhibit NADase activity of purified SARM1 TIR
- dose dependence of inhibition of axon degeneration ([3]; 0.05 to 5 μM, added 30 min before axotomy): dose dependent inhibition of axon degeneration
- protection from axon degeneration (degeneration index) ([3]; 24 h after axotomy): significant protection
- IC50 [4]: ~150 nM

SMILES: Nc1ncnc2c1ncn2[C@@H]1O[C@H](COP(=O)(O)OP(=O)(O)OC[C@H]2O[C@@H]([n+]3cccc(C(=O)O)c3)[C@H](O)[C@@H]2O)[C@@H](O)[C@H]1O [NaAD, Nicotinic Acid Adenine Dinucleotide]
- degradation by wild type SARM1-TIR complexes (substrate specificity) [5]: do not degrade

Reference: patent publication US11903935B2, “Inhibitors of SARM1 NADase activity and uses thereof” (Washington University, priority 2016, dated 2024)
